Experiment [1] has as its target T1, mineralocorticoid receptor (Homo sapiens, UniProt P08235).
T1 sequence (P08235 1-984): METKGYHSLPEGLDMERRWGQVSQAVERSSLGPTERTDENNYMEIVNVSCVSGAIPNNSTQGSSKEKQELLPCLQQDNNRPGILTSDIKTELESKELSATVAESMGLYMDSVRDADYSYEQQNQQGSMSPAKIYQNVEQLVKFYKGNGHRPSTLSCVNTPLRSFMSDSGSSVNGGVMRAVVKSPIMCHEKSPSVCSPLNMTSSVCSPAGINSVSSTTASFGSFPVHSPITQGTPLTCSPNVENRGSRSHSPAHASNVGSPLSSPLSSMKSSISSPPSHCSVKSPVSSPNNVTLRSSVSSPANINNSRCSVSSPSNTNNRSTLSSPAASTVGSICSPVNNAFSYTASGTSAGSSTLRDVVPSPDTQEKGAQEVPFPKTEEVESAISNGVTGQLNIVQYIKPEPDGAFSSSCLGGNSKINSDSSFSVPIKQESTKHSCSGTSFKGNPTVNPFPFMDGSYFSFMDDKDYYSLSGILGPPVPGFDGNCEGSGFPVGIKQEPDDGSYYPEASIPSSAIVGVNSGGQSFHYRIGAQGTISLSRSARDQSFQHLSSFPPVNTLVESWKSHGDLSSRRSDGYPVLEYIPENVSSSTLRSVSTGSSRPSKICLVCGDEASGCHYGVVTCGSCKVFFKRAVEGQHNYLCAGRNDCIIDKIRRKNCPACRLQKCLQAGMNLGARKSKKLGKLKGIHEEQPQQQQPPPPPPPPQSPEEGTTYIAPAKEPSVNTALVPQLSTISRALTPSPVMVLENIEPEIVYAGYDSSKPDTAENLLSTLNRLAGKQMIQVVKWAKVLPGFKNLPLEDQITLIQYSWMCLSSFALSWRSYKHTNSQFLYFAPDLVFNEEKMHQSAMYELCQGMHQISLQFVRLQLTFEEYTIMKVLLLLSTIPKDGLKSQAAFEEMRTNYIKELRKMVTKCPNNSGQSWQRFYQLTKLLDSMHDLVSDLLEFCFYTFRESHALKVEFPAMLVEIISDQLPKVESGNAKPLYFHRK
In words: Antimineralocorticoid action by transactivation test (MDCK reporter cells).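 On Emax: percent inhibition of the aldosterone-stimulated reporter signal.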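 On Mineralocorticoid receptor Antagonism efficacy: percent inhibition of the aldosterone-stimulated reporter signal.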 The arrangement: expressed in transfected cells; host or cells: MDCK cells. The settings on record: for Emax: read-out: Mineralocorticoid receptor Antagonism efficacy. The experiment is classed as cell-based. The method, then:
The test compounds were added eight hours later, and the cells were incubated with the compounds for 16 hours. The tests were carried out in triplicate. At the end of incubation the medium containing the effector was removed and replaced with lysis buffer. After luciferase assay substrate (Promega, #E1501) had been added, the 96-well plates were then put in a microplate luminometer (Pherastar, BMG Labtech), and the luminescence was measured. The IC50 values were evaluated using software for calculating dose-effect relations.
5. Determination of Antimineralocorticoid Action by Means of Transactivation Tests:
The antimineralocorticoid activity of the test substances was determined as for the transactivation tests described above.
The following modifications were undertaken: In this case reporter cell lines were used (MDCK cells) that express the human mineralocorticoid receptor, and transiently contain a reporter construct that contains luciferase under the control of a steroid hormone-responsive promoter.

The next experiment concerns the target T2, progesterone receptor (Homo sapiens, UniProt P06401).
T2 construct: made in house; host or cells: Hi5 insect cells (cytosol)
T2 sequence (P06401 1-933): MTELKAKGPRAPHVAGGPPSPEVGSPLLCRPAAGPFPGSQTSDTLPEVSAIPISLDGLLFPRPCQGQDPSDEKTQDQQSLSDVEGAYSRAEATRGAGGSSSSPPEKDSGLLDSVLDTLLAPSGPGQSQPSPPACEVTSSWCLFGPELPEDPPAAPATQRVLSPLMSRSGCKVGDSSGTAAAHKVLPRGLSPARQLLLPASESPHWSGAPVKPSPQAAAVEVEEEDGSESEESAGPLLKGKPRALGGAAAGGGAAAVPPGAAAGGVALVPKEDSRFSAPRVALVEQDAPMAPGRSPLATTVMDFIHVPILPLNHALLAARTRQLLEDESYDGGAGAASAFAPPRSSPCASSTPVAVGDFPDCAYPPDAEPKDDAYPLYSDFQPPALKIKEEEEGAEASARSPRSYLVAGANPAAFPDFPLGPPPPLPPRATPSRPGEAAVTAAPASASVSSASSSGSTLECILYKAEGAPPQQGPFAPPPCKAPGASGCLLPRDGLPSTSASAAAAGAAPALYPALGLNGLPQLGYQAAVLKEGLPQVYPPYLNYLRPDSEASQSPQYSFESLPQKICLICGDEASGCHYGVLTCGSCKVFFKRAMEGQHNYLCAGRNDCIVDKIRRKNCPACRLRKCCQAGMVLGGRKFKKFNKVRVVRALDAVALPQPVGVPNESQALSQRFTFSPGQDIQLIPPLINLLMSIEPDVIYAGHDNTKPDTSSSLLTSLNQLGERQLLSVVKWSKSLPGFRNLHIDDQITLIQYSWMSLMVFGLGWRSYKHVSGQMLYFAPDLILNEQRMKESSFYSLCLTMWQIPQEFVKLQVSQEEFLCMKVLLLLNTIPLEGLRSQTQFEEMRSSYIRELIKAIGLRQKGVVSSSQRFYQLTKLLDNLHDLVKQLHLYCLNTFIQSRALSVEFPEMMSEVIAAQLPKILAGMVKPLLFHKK
Description: Progesterone receptor binding test. The note with it: for Progesterone receptor (PR) Competition factor: CF 1 = affinity of progesterone, CF >1 lower affinity, <1 higher affinity; for CF PR/CF MR: ratio of competition factors CF(PR) and CF(MR). As to the method:
1. Progesterone Receptor Binding Test:
Using cytosol from progesterone receptor-expressing insect cells (Hi5), competitive binding to the progesterone receptor was determined from the ability to displace ^3H-progesterone as reference substance from the receptor.

[2] abbreviates: MDCK cells, with 1 nM aldosterone, read-out: Mineralocorticoid receptor Antagonism IC50.
Setting [3] is: MDCK cells, with 1 nM aldosterone.

Read-outs that look alike come from different tables or passages of the source.

For the compound `CC[C@]12CC[C@H]3[C@@H]([C@H]4C[C@H]4C4=CC(=O)CC[C@@H]43)[C@@H]1[C@@H]1C[C@@H]1[C@@]21C=CC(=O)O1` [Example 1, 6β,7β;15β,16β-Bismethylene-17β-hydroxy-18-methyl-19-nor-17α-pregna-4,20(Z)-dien-3-one-21-carboxylic acid γ-lactone], in experiment [1], 10 nM corresponded to half-maximal inhibition (IC50). Also, in experiment [1] (MDCK), the Emax came out at 79.5%. Besides, on progesterone receptor, the half-maximal inhibitory concentration (IC50) (commonly the concentration needed to halve the response being measured) came to 41 nM, the “Progesterone receptor (PR) Competition factor” value (from here on “Progesterone receptor”) is given as 0.76 and the “CF PR/CF MR” value is reported as 0.48.
As to `CC[C@]12CC[C@H]3[C@@H]([C@@H]4C[C@@H]4C4=CC(=O)CC[C@@H]43)[C@@H]1[C@@H]1C[C@@H]1[C@@]21C=CC(=O)O1` [Example 2, 6α,7α;15β,16β-Bismethylene-17β-hydroxy-18-methyl-19-nor-17α-pregna-4,20(Z)-dien-3-one-21-carboxylic acid γ-lactone], in experiment [1], the midpoint of inhibition, the IC50, lay at 230 nM. Further, the Emax in experiment [1] (MDCK) was 112%. For the same compound, at progesterone receptor, the IC50 was 630 nM, the “Progesterone receptor” value is 24.37 and the “CF PR/CF MR” value is 5.54.
The matching figures for `CC[C@]12CC[C@H]3[C@@H](C=CC4=CC(=O)CC[C@@H]43)[C@@H]1[C@@H]1C[C@@H]1[C@@]21C=CC(=O)O1` [Example 3, 17β-Hydroxy-18-methyl-15β,16β-methylene-19-nor-17α-pregna-4,6,20(Z)-trien-3-one-21-carboxylic acid γ-lactone]: 22 nM, 97.6%, 72 nM, 2.72 and 1.81.
The matching figures for `CC[C@]12CC[C@H]3[C@H]([C@@H]1[C@@H]1C[C@@H]1[C@@]21C=CC(=O)O1)[C@H](C)CC1=CC(=O)CC[C@@H]13` [Example 4A, 7α,18-Bismethyl-17β-hydroxy-15β,16β-methylene-19-nor-17α-pregna-4,20(Z)-dien-3-one-21-carboxylic acid γ-lactone]: 3 nM, 99.9%, 48 nM, 2.66 and 4.43.
Turning to `CC[C@@H]1CC2=CC(=O)CC[C@@H]2[C@H]2CC[C@@]3(CC)[C@@H]([C@@H]4C[C@@H]4[C@@]34C=CC(=O)O4)[C@H]12` [Example 5A, 17β-Hydroxy-7α-ethyl-18-methyl-15β,16β-methylene-19-nor-17α-pregna-4,20(Z)-dien-3-one-21-carboxylic acid γ-lactone], on progesterone receptor, the IC50 was determined as 300 nM, the “Progesterone receptor” value amounted to 12.00 and the “CF PR/CF MR” value is 12.00.
In experiment [1], `C=C[C@@H]1CC2=CC(=O)CC[C@@H]2[C@H]2CC[C@@]3(CC)[C@@H]([C@@H]4C[C@@H]4[C@@]34C=CC(=O)O4)[C@@H]21` [Example 6A, 17β-Hydroxy-7α-vinyl-18-methyl-15β,16β-methylene-19-nor-17α-pregna-4,20(Z)-dien-3-one-21-carboxylic acid γ-lactone] yielded an IC50 of 9 nM. In addition, the Emax in experiment [1] (MDCK) was 102%. Also, on progesterone receptor, the IC50 was 120 nM, the “Progesterone receptor” value was 4.85 and the “CF PR/CF MR” value was found to be 3.23.
The corresponding values for `CC[C@]12CC[C@H]3[C@H]([C@@H]1[C@@H]1C[C@@H]1[C@@]21C=CC(=O)O1)[C@H](C1CC1)CC1=CC(=O)CC[C@@H]13` [Example 7A, 17β-Hydroxy-7α-cyclopropyl-18-methyl-15β,16β-methylene-19-nor-17α-pregna-4,20(Z)-dien-3-one-21-carboxylic acid γ-lactone] are 77 nM, 102%, 380 nM, 14.22 and 3.03.
`CC[C@]12CC[C@H]3[C@@H]([C@H]4C[C@H]4C4=C(Cl)C(=O)CC[C@@H]43)[C@@H]1[C@@H]1C[C@@H]1[C@@]21C=CC(=O)O1` [Example 8, 6β,7β;15β,16β-Bismethylene-4-chloro-17β-hydroxy-18-methyl-19-nor-17α-pregna-4,20(Z)-dien-3-one-21-carboxylic acid γ-lactone]: the IC50 in experiment [1] (setting [2]) is 960 nM. The Emax in experiment [1] (setting [3]) is 31.1%. In addition, on progesterone receptor, the “Progesterone receptor” value stood at 31.12 and the “CF PR/CF MR” value stood at 1.07. The IC50 at progesterone receptor (displacement of 3H-progesterone, cytosol from PR-expressing insect cells (Hi5), read-out: Progesterone receptor (PR) IC50) is 740 nM.
`CC[C@]12CC[C@H]3[C@@H](CCC4=CC(=O)CC[C@@H]43)[C@@H]1[C@@H]1C[C@@H]1[C@@]21C=CC(=O)O1` [Example 9, 17β-Hydroxy-18-methyl-15β,16β-methylene-19-nor-17α-pregna-4,20(Z) dien-3-one-21-carboxylic acid γ-lactone] returned an IC50 in experiment [1] of 3 nM. For the same compound, the Emax in experiment [1] (MDCK) stood at 27.8%. Moreover, on progesterone receptor, the IC50 was 78.5 nM, the “Progesterone receptor” value came out at 1.65 and the “CF PR/CF MR” value is 1.50.
Regarding `CC[C@]12CC[C@H]3[C@@H](C[C@@H](CO)C4=CC(=O)CC[C@@H]43)[C@@H]1[C@@H]1C[C@@H]1[C@@]21C=CC(=O)O1` [Example 10, 17β-Hydroxy-6β-hydroxymethylene-18-methyl-15β,16β-methylene-19-nor-17α-pregna-4,20(Z)-dien-3-one-21-carboxylic acid γ-lactone], the IC50 in experiment [1] (setting [2]) was 110 nM. The Emax in experiment [1] (setting [3]) was determined as 92.7%. On progesterone receptor, the “Progesterone receptor” value turned out to be 4000.00 and the “CF PR/CF MR” value was “inactive”.
In experiment [1], `C[C@]12CC[C@H]3[C@@H](CCC4=CC(=O)CC[C@@H]43)[C@@H]1[C@H]1C[C@H]1[C@@]21C=CC(=O)O1` [Example 12, 17β-Hydroxy-15α,16α-methylene-19-nor-17α-pregna-4,20(Z)-dien-3-one-21-carboxylic acid γ-lactone] registered an IC50 of 100 nM. For the same compound, the Emax in experiment [1] (MDCK) came to 71.4%. In addition, at progesterone receptor, the IC50 was 49 nM, the “Progesterone receptor” value is recorded as 1.50 and the “CF PR/CF MR” value is recorded as 0.52.

The record behind these values is patent US20110015162A1, “15,16-Methylene-17-hydroxy-19-nor-21-carboxylic acid-steroid Y-lactone derivative, use thereof and medicinal products containing the derivative” (Bayer Schering Pharma Aktiengesellschaft, priority 2007, published 2011).
